Data taken from the supplement of paper PMC10307832.

Tests used:
Assay in all cases: relative viability (nuclei count vs DMSO), 5 days (fraction); higher = more cells survive
RO-3306 + Pictilisib = compound: C1=CC2=C(C=CC(=C2)C=C3C(=O)NC(=NCC4=CC=CS4)S3)N=C1 [RO-3306] + CS(=O)(=O)N1CCN(Cc2cc3nc(-c4cccc5[nH]ncc45)nc(N4CCOCC4)c3s2)CC1 [Pictilisib] (partner 1 µM)
Method in brief: (§1)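 Dosing by pin tool came one day after lung cancer cell lines were seeded in 1536-well plates, using either one drug or a fixed anchor-drug dose plus five library-drug doses (not always all listed) in √10 steps. After 5 days, nuclei were counted on 4× images. Relative viability is treated-well nuclei count divided by vehicle-well nuclei count, and values are medians of duplicate plates.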

RO-3306 + Linsitinib = compound: C1=CC2=C(C=CC(=C2)C=C3C(=O)NC(=NCC4=CC=CS4)S3)N=C1 [RO-3306] + C[C@]1(O)C[C@@H](c2nc(-c3ccc4ccc(-c5ccccc5)nc4c3)c3c(N)nccn32)C1 [Linsitinib] (partner 1 µM)
Method in brief: as §1

[1] = compound: O=S(=O)(c1ccccc1)N(CC(F)(F)F)c1ccc(C(O)(C(F)(F)F)C(F)(F)F)cc1 + COc1cc2c(Oc3ccc(NC(=O)C4(C(=O)Nc5ccc(F)cc5)CC4)cc3F)ccnc2cc1OCCCN1CCOCC1 [Foretinib] (partner 0.25 µM)
Method in brief: as §1

[2] = compound: O=S(=O)(c1ccccc1)N(CC(F)(F)F)c1ccc(C(O)(C(F)(F)F)C(F)(F)F)cc1 + COc1cccc2cc(-c3nc([C@H]4CC[C@H](C(=O)O)CC4)n4ncnc(N)c34)[nH]c12 [OSI-027] (partner 0.5 µM)
Method in brief: as §1

[3] = compound: O=S(=O)(c1ccccc1)N(CC(F)(F)F)c1ccc(C(O)(C(F)(F)F)C(F)(F)F)cc1 + N=C(N)NC(=N)NCCc1ccccc1 [Phenformin] (partner 250 µM)
Method in brief: as §1

Row | Cell Line | relative viability (RO-3306 + Pictilisib; first compound 0.01 µM) | relative viability (RO-3306 + Pictilisib; first compound 0.03162 µM) | relative viability (RO-3306 + Pictilisib; first compound 0.1 µM) | relative viability (RO-3306 + Pictilisib; first compound 0.3162 µM) | relative viability (RO-3306 + Pictilisib; first compound 1 µM) | relative viability (RO-3306 + Linsitinib; first compound 0.01 µM) | relative viability (RO-3306 + Linsitinib; first compound 0.03162 µM) | relative viability (RO-3306 + Linsitinib; first compound 0.1 µM) | relative viability (RO-3306 + Linsitinib; first compound 0.3162 µM) | relative viability (RO-3306 + Linsitinib; first compound 1 µM) | relative viability ([1]; first compound 0.8 µM) | relative viability ([1]; first compound 2.53 µM) | relative viability ([1]; first compound 8 µM) | relative viability ([2]; first compound 0.8 µM) | relative viability ([2]; first compound 2.53 µM) | relative viability ([2]; first compound 8 µM) | relative viability ([3]; first compound 0.8 µM) | relative viability ([3]; first compound 2.53 µM) | relative viability ([3]; first compound 8 µM)
1 | SW 1573 | 0.536 | 0.406 | 0.534 | 0.534 | 0.39 | 0.869 | 0.721 | 0.805 | 0.762 | 0.727 | 0.954 | 0.898 | 1.04 | 0.863 | 0.619 | 0.487 | 0.47 | 0.37 | 0.401
2 | NCI-H2347 | 0.715 | 0.477 | 0.642 | 0.881 | 0.668 | 1.01 | 0.877 | 0.999 | 1.01 | 0.795 | 1.2 | 0.996 | 0.683 | 0.699 | 0.445 | 0.302 | 0.462 | 0.38 | 0.342
3 | HARA | 0.367 | 0.247 | 0.457 | 0.394 | 0.358 | 0.861 | 0.789 | 0.902 | 1.02 | 1.35 | 0.845 | 0.782 | 0.849 | 0.397 | 0.469 | 0.425 | 0.438 | 0.357 | 0.304
4 | NCI-H1355 | 0.423 | 0.396 | 0.493 | 0.512 | 0.316 | 1.04 | 0.802 | 0.763 | 0.929 | 0.799 | 1.06 | 0.978 | 1.01 | 0.409 | 0.366 | 0.453 | 0.467 | 0.397 | 0.438
5 | NCI-H1395 | 0.589 | 0.911 | 0.547 | 0.644 | 0.753 | 1.1 | 0.954 | 1.06 | 1.02 | 1.04 | 0.924 | 0.862 | 0.994 | 0.512 | 0.57 | 0.579 | 0.438 | 0.465 | 0.482
6 | NCI-H1563 | 0.641 | 0.597 | 0.69 | 0.62 | 0.59 | 1.08 | 1.14 | 1.3 | 1.18 | 1.16 | 0.922 | 0.827 | 0.893 | 0.792 | 0.734 | 0.854 | 0.676 | 0.637 | 0.675
7 | NCI-H1437 | 0.403 | 0.364 | 0.372 | 0.472 | 0.449 | 1.15 | 0.673 | 0.945 | 1.03 | 1.1 | 1.35 | 1.09 | 0.979 | 0.915 | 0.811 | 0.822 | 0.297 | 0.239 | 0.342
8 | NCI-H358 | 0.308 | 0.387 | 0.319 | 0.321 | 0.31 | 0.827 | 0.642 | 0.656 | 0.892 | 0.517 | 0.592 | 0.557 | 0.45 | 0.743 | 0.751 | 0.543 | 0.265 | 0.236 | 0.261
9 | HOP-62 | 0.898 | 0.564 | 0.759 | 0.686 | 0.471 | 0.951 | 0.985 | 0.892 | 0.978 | 0.973 | 1.08 | 1.09 | 0.881 | 0.904 | 0.878 | 0.665 | 0.646 | 0.533 | 0.427
10 | EKVX | 0.402 | 0.362 | 0.449 | 0.498 | 0.431 | 1.13 | 0.678 | 1.07 | 1.21 | 0.78 | 0.751 | 0.479 | 0.82 | 0.746 | 0.646 | 0.691 | 0.226 | 0.199 | 0.228
11 | NCI-H1666 | 0.451 | 0.407 | 0.389 | 0.35 | 0.406 | 0.829 | 0.693 | 0.684 | 0.823 | 0.834 | 0.936 | 0.863 | 0.863 | 0.849 | 0.819 | 0.813 | 0.537 | 0.541 | 0.511
12 | 201T | 0.671 | 0.616 | 0.668 | 0.663 | 0.559 | 1.11 | 1.01 | 1.08 | 1.09 | 0.999 | 1.1 | 0.968 | 0.92 | 0.685 | 0.738 | 0.688 | 0.451 | 0.41 | 0.503
13 | COR-L 105 | 0.355 | 0.364 | 0.361 | 0.47 | 0.366 | 1.08 | 0.912 | 0.923 | 1.08 | 0.861 | 1.13 | 0.852 | 1.48 | 0.763 | 0.581 | 0.715 | 0.455 | 0.422 | 0.492
14 | NCI-H1755 | 0.523 | 0.376 | 0.424 | 0.457 | 0.473 | 1.05 | 1 | 1.02 | 0.995 | 1.09 | 0.891 | 0.79 | 0.951 | 0.712 | 0.657 | 0.691 | 0.638 | 0.614 | 0.569
15 | NCI-H520 | 0.307 | 0.266 | 0.283 | 0.312 | 0.314 | 1.05 | 0.872 | 0.82 | 1.2 | 0.824 | 0.923 | 0.686 | 0.699 | 0.298 | 0.21 | 0.281 | 0.825 | 0.568 | 0.708
16 | NCI-H1793 | 0.402 | 0.276 | 0.34 | 0.258 | 0.389 | 1.1 | 0.624 | 0.931 | 1.05 | 1.01 | 0.484 | 0.321 | 0.566 | 0.292 | 0.188 | 0.207 | 0.447 | 0.332 | 0.285
